Results as given in the supplement of paper PMC11208160.

Assay: recombinant barcode read abundance after kanamycin selection (control-corrected) (log10(CPM+1)); higher = more efficient recombination; sequences stand for … in AGTGCAGAGAAAATCGGCCAGTTTTCTCTGCCTGCAGTCCGCATGCCGT…AGATTTATGCAGCGGACTGCCTTTCTCCCAAAGTGATAAACCGGACAGTATCATGGACCGGTTTTCCCGGTAATCCGTATTTGCAAGGTTGGTTTCACT; site = the 11-nt target
Experimental: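 Pooled E. coli target-specificity screen for the IS621 bridge recombinase. Each library plasmid pairs an 11-nt target (CT core) with a bridge RNA whose target-binding loop (9-nt LTG + 4-nt RTG) is reprogrammed; the rest of the 177-nt WT IS621 bridge RNA scaffold is fixed. The plasmid is co-electroporated with a WT donor plasmid; recombinase is induced with 0.1 mM IPTG and recombinants are selected on kanamycin. Recombinant barcodes are sequenced, converted to CPM, averaged over two biological replicates and corrected by the unselected control CPM. Molecule = full bridge RNA written as DNA: LTG = specificity nt 1-9, RTG = reverse complement of specificity nt 8-11, in the WT scaffold.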
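Further: IS621 recombinase and bridge RNA in Escherichia coli cells.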

Sequence | recombinant barcode read abundance (log10)
ACGTTACCTTGGGTTCTAACCTGTTGCCT (site ACGATACCTAG) | 0.331
ACGTTACCTTGGGTTCTAACCTGTTGCCT (site ACGTTACCTAG) | 0.501
ACGTTGCCTTGGGTTCTAACCTGTTGCCT (site ACATTGCCTAG) | 0.188
ACGTTGCCTTGGGTTCTAACCTGTTGCCT (site ACCTTGCCTAG) | 0.0523
ACGTTGCCTTGGGTTCTAACCTGTTGCCT (site ACGTTGCCTAG) | 0.316
ACGTTGCCTTGGGTTCTAACCTGTTGCCT (site ACTTTGCCTAG) | 0.0271
ACTACTCCTTGGGTTCTAACCTGTTGCAG (site ACTACTCCTCT) | 0.461
ACTACTCCTTGGGTTCTAACCTGTTGCAG (site ACTGGTCCTCT) | 0.183
ACTAGAGCTTGGGTTCTAACCTGTTGCCT (site ACAAGAGCTAG) | 0.122
ACTAGAGCTTGGGTTCTAACCTGTTGCCT (site ACCAGAGCTAG) | 0.268
ACTAGAGCTTGGGTTCTAACCTGTTGCCT (site ACGAGAGCTAG) | 0.197
ACTAGAGCTTGGGTTCTAACCTGTTGCCT (site ACTAGAGCTAG) | 0.198
ACTAGCTCTTGGGTTCTAACCTGTTGCCT (site ACTAGCTCTAG) | 0.356
ACTAGCTCTTGGGTTCTAACCTGTTGCCT (site ACTTGCTCTAA) | 0.0142
ACTATGACTTGGGTTCTAACCTGTTGCTT (site ACTATGACTAA) | 0.75
ACTATGACTTGGGTTCTAACCTGTTGCTT (site GACTATCCTCG) | 0.0905
ACTATGTCTTGGGTTCTAACCTGTTGCCA (site ACTATGTCTTG) | 0.147
ACTATGTCTTGGGTTCTAACCTGTTGCCA (site CCTATGTCTTA) | 0.00838
ACTCAGGCTTGGGTTCTAACCTGTTGCCG (site ACAGAGGCTCG) | 0.138
ACTCAGGCTTGGGTTCTAACCTGTTGCCG (site ACTCAGGCTCG) | 0.541
ACTCCGTCTTGGGTTCTAACCTGTTGCTA (site ACTCCGTCTTA) | 1.11

Sequence | recombinant barcode read abundance (log10)
ACTCCGTCTTGGGTTCTAACCTGTTGCTA (site GCTCCGTCTAA) | 0.0432
ACTCGACCTTGGGTTCTAACCTGTTGCCT (site ACTAGACCTAG) | 0.197
ACTCGACCTTGGGTTCTAACCTGTTGCCT (site ACTCGACCTAG) | 1.78
ACTGAGTCTTGGGTTCTAACCTGTTGCAT (site ACTGAGTCTAT) | 2.69
ACTGAGTCTTGGGTTCTAACCTGTTGCAT (site ACTGAGTCTTT) | 0.109
ACTGAGTCTTGGGTTCTAACCTGTTGCTT (site ACTGAGTCTAA) | 1.22
ACTGAGTCTTGGGTTCTAACCTGTTGCTT (site ACTGGGTCTAA) | 0.0903
ACTGGACCTTGGGTTCTAACCTGTTGCTT (site ACTGGACCTAA) | 2.23
ACTGGACCTTGGGTTCTAACCTGTTGCTT (site GCTGGACCTAG) | 0.616
ACTGGGGCTTGGGTTCTAACCTGTTGCCA (site ACTGGGGCTTG) | 0.782
ACTGGGGCTTGGGTTCTAACCTGTTGCCA (site TCTGGGGCTAG) | 0.0799
ACTGGTCCTTGGGTTCTAACCTGTTGCAG (site ACTACTCCTCT) | 0.0961
ACTGGTCCTTGGGTTCTAACCTGTTGCAG (site ACTGGTCCTCT) | 2.59
ACTTAGCCTTGGGTTCTAACCTGTTGCAT (site ACTTAGCCTAG) | 1.48
ACTTAGCCTTGGGTTCTAACCTGTTGCAT (site ACTTAGCCTAT) | 1.27
ACTTCGACTTGGGTTCTAACCTGTTGCCT (site AATTCGACTAG) | 0.0426
ACTTCGACTTGGGTTCTAACCTGTTGCCT (site ACTTCGACTAG) | 0.116
ACTTCGACTTGGGTTCTAACCTGTTGCCT (site AGTTCGACTAG) | 0.461
ACTTCGACTTGGGTTCTAACCTGTTGCCT (site ATTTCGACTAG) | 0.0176
ACTTCTTCTTGGGTTCTAACCTGTTGCCT (site ACTTCTACTCG) | 0.124
ACTTCTTCTTGGGTTCTAACCTGTTGCCT (site ACTTCTTCTAG) | 0.0747

Sequence | recombinant barcode read abundance (log10)
ACTTGCTCTTGGGTTCTAACCTGTTGCTT (site ACTAGCTCTAG) | 0.448
ACTTGCTCTTGGGTTCTAACCTGTTGCTT (site ACTTGCTCTAA) | 0.136
ACTTGGACTTGGGTTCTAACCTGTTGCAT (site ACTTGGACTAT) | 1.79
ACTTGGACTTGGGTTCTAACCTGTTGCAT (site ACTTGTACTAT) | 0.0581
ACTTGGCCTTGGGTTCTAACCTGTTGCTG (site ACGTGGCCTCA) | 0.111
ACTTGGCCTTGGGTTCTAACCTGTTGCTG (site ACTTGGCCTCA) | 0.0699
ACTTTCCCTTGGGTTCTAACCTGTTGCCT (site ACTTTCCCTAG) | 0.424
ACTTTCCCTTGGGTTCTAACCTGTTGCCT (site GCTTTGCCTAG) | 0.0175
AGAAGCACTTGGGTTCTAACCTGTTGCCA (site AGAAGCACTTG) | 0.783
AGAAGCACTTGGGTTCTAACCTGTTGCCA (site CTGTCTCCTAC) | 0.00729
AGAAGCCCTTGGGTTCTAACCTGTTGCCT (site AAAAGCCCTAG) | 0.134
AGAAGCCCTTGGGTTCTAACCTGTTGCCT (site ACAAGCCCTAG) | 0.269
AGAAGCCCTTGGGTTCTAACCTGTTGCCT (site AGAAGCCCTAG) | 1.51
AGAAGCCCTTGGGTTCTAACCTGTTGCCT (site ATAAGCCCTAG) | 0.0722
AGAAGTCCTTGGGTTCTAACCTGTTGCCG (site AGAAGTCCTCA) | 0.236
AGAAGTCCTTGGGTTCTAACCTGTTGCCG (site AGAAGTCCTCC) | 0.121
AGAAGTCCTTGGGTTCTAACCTGTTGCCG (site AGAAGTCCTCG) | 0.971
AGAAGTCCTTGGGTTCTAACCTGTTGCCG (site AGAAGTCCTCT) | 0.221
AGAATAGCTTGGGTTCTAACCTGTTGCAG (site AGAATAGCTCT) | 2.13
AGAATAGCTTGGGTTCTAACCTGTTGCAG (site AGGATAGCTCA) | 0.0664
AGAATGTCTTGGGTTCTAACCTGTTGCCT (site AGAACGTCTAG) | 0.0676

Sequence | recombinant barcode read abundance (log10)
AGAATGTCTTGGGTTCTAACCTGTTGCCT (site AGAATGTCTAG) | 1.98
AGACCTCCTTGGGTTCTAACCTGTTGCTT (site AGACATCCTAA) | 0.0481
AGACCTCCTTGGGTTCTAACCTGTTGCTT (site AGACCTCCTAA) | 1.39
AGACCTCCTTGGGTTCTAACCTGTTGCTT (site AGACGTCCTAA) | 0.138
AGACCTCCTTGGGTTCTAACCTGTTGCTT (site AGACTTCCTAA) | 0.0176
AGACCTTCTTGGGTTCTAACCTGTTGCCT (site ACACCGTCTAG) | 0.0168
AGACCTTCTTGGGTTCTAACCTGTTGCCT (site AGACCTTCTAG) | 1.55
AGACGTACTTGGGTTCTAACCTGTTGCGT (site AGACGTACTAC) | 1.82
AGACGTACTTGGGTTCTAACCTGTTGCGT (site TAGTTATCTTA) | 0.102
AGAGAGACTTGGGTTCTAACCTGTTGCAC (site AGAGAGACTGT) | 2.18
AGAGAGACTTGGGTTCTAACCTGTTGCAC (site TGATAGACTGT) | 0.169
AGAGAGACTTGGGTTCTAACCTGTTGCCT (site AGAGAGACTAG) | 2.43
AGAGAGACTTGGGTTCTAACCTGTTGCCT (site AGAGCGACTAG) | 0.0685
AGAGAGACTTGGGTTCTAACCTGTTGCCT (site AGAGGGACTAG) | 0.27
AGAGAGACTTGGGTTCTAACCTGTTGCCT (site AGAGTGACTAG) | 0.185
AGAGCCTCTTGGGTTCTAACCTGTTGCTA (site AGAGCCTCTTA) | 2.36
AGAGCCTCTTGGGTTCTAACCTGTTGCTA (site TTCAGGGCTCT) | 0.0371
AGATCATCTTGGGTTCTAACCTGTTGCTT (site AGACCATCTAG) | 0.0425
AGATCATCTTGGGTTCTAACCTGTTGCTT (site AGATCATCTAA) | 0.278
